From patent US10906888B2, “Pyrimidine carboxamides as inhibitors of Vanin-1 enzyme” (Pfizer Inc., priority 2016, dated 2021)

target: human vanin-1 (Homo sapiens (Human), UniProt O95497); test: Human Vanin-1 Enzyme Assay 1; type: biochemical; settings: 25 pM human vanin-1, 50 uM pantetheine 7-amino-4-trifluoromethylcoumarin substrate
Method: Human Vanin-1Enzyme Assay 1.
The in vitro assay measures enzymatic cleavage of the fluorescently-labeled vanin substrate, pantetheine 7-amino-4-trifluoromethylcoumarin, by human vanin-1.
The vanin-1 protein was prepared in-house from a construct expressing the extracellular domain of human vanin-1 (GenBank ID NM_004666) preceded N-terminally by the honey bee melittin signal peptide, a GSG linker sequence, a His6× tag and a FLAG tag. The secreted, soluble enzyme was purified from the conditioned medium from a CHO cell line stably expressing the resulting protein. Enzyme purification was performed through sequential Ni NTA and size-exclusion chromatography steps.
Intermediate concentrations were prepared by diluting in DMSO in a four-fold series for a total of 11 data points.
To begin the assay 100 nL was transferred from the compound plate to the assay plate. Next, 15 μL of the vanin-1 working solution were transferred to the assay plate. The inhibitor and enzyme were incubated at room temperature for 30 minutes. The enzyme reaction was then initiated by the addition of 5 μL of 200 μM pantetheine 7-amino-4-trifluoromethylcoumarin prepared in assay buffer. […] The final concentration of DMSO was 0.5%.

human vanin-1, sequence (O95497 22-491): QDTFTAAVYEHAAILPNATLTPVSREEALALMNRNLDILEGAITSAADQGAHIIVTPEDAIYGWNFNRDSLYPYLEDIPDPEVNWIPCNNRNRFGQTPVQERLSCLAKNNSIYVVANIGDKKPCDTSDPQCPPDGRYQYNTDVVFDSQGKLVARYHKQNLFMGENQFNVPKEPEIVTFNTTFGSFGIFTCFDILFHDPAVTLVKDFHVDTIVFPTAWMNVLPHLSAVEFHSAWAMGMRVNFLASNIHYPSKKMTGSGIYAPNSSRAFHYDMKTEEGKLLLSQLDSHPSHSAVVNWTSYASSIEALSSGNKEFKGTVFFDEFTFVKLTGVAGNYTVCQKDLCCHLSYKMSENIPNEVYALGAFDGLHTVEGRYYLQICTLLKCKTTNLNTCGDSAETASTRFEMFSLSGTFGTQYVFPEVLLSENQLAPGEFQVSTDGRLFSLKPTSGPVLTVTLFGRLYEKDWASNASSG

| SMILES | IC50 [µM] |
| --- | --- |
| CO[C@@H]1CN(C(=O)c2cnc(NC3(c4cncnc4)CC3)nc2)C[C@H]1F [Example 84] | 0.0754 |
| O=C(c1cnc(NCc2cccnc2)nc1)N1CC(O)C1 [Example 16] | 0.323 |
| O=C(c1cnc(NC2(c3cncnc3)CC2)nc1)N1C2CCC1COC2 [Example 97] | 0.345 |
| CC1(C)CCN(C(=O)c2cnc(NC3(c4cncnc4)CC3)nc2)C1 [Example 191] | 0.00157 |
| CO[C@@H]1[C@@H]2CC[C@H]1CN(C(=O)c1cnc(NCc3cccnc3)nc1)C2 [Example 12] | 0.0941 |
| O=C(c1cnc(NCc2cccnc2)nc1)N1CC(O)(C2CC2)C1 [Example 5] | 0.016 |
| NC(=O)C1CCCN(C(=O)c2cnc(NCc3cccnc3)nc2)C1 (centres unmarked) [Example 13] | 0.101 |
| Cc1ccc(C2(Nc3ncc(C(=O)N4CC5(CCOCC5)C4)cn3)CC2)cn1 [Example 176] | 0.000911 |
| O=C(c1cnc(NCc2cccnc2)nc1)N1C[C@H]2CCC[C@@H](O)[C@H]2C1 (relative stereo) [Example 3] | 0.00169 |
| Cc1ccc([C@@H](C)Nc2ncc(C(=O)N3CCC4(CCOCC4)C3)cn2)cn1 [Example 141] | 0.0873 |
| C[C@@H]1CN(C(=O)c2cnc(NC3(c4cncnc4)CC3)nc2)[C@H](C)CO1 [Example 58] | 0.116 |
| O=C(c1cnc(NCc2cnccn2)nc1)N1C[C@H](O)[C@@H](N2CCOCC2)C1 [Example 115] | 16 |
| CN1CC2(CCN(C(=O)c3cnc(NC4(c5cncnc5)CC4)nc3)CC2)OC1=O [Example 57] | 0.611 |
| C[C@H](Nc1ncc(C(=O)N2CCN3CCC[C@@H]3C2)cn1)c1cnccn1 [Example 114] | 0.0209 |
| Cc1ccc(C2(Nc3ncc(C(=O)N4CCC5(CCOCC5)C4)cn3)CC2)cn1 [Example 175] | 0.00024 |
| CS(=O)(=O)C1CCCN(C(=O)c2cnc(NC3(c4cncnc4)CC3)nc2)C1 (single isomer, unassigned) [Example 199] | 1.18 |
| NC(=O)C1CCN(C(=O)c2cnc(NCc3cccnc3)nc2)CC1 [Example 29] | 1.92 |
| CCC1(CO)CCN(C(=O)c2cnc(NC3(c4cncnc4)CC3)nc2)CC1 [Example 95] | 0.0301 |
| O=C(c1cnc(NC2(c3cncnc3)CC2)nc1)N1CCCC(C(F)(F)F)C1 (centres unmarked) [Example 74] | 0.00362 |
| O=C(c1cnc(NCc2cccnc2)nc1)N1CCCC2(COC2)C1 [Example 31] | 3.09 |
| O=C(c1cnc(NC2(c3cncnc3)CC2)nc1)N1CCC(C2(O)CCCC2)CC1 [Example 101] | 1.36 |
| C[C@H]1C[C@@H](O)CN(C(=O)c2cnc(NC3(c4cncnc4)CC3)nc2)C1 [Example 86] | 0.0242 |
| O=C(c1cnc(NC2(c3cncnc3)CC2)nc1)N1CCC(F)CC1 [Example 68] | 0.00813 |
| O=C(Nc1ncc(C(=O)N2CCC3(CCOCC3)C2)cn1)c1cnccn1 [Example 204, N-[5-(8-oxa-2-azaspiro[4.5]dec-2-ylcarbonyl)pyrimidin-2-yl]pyrazine-2-carboxamide] | 5.16 |
| NC(=O)[C@@H]1CCCN1C(=O)c1cnc(NCc2cccnc2)nc1 [Example 32] | 20 |
| Cc1nc(NCc2cnccn2)ncc1C(=O)N1CCC2(CCOCC2)C1 [Example 139] | > 17.6 |

| SMILES | IC50 [µM] |
| --- | --- |
| C[C@@H]1CN(C(=O)c2cnc(NC3(c4cncnc4)CC3)nc2)CCO1 [Example 99] | 0.591 |
| CCC1(C)CCN(C(=O)c2cnc(NC3(c4cncnc4)CC3)nc2)CC1 [Example 46] | 0.00629 |
| CCC1(CO)CCN(C(=O)c2cnc(NC3(c4cncnc4)CC3)nc2)C1 (single isomer, unassigned) [Example 201] | 0.000582 |
| CS(=O)(=O)C1CCCN(C(=O)c2cnc(NC3(c4cncnc4)CC3)nc2)C1 (centres unmarked) [Example 198] | 0.0205 |
| O=C(c1cnc(NC2(c3cncnc3)CC2)nc1)N1CCCC(CO)C1 (centres unmarked) [Example 106] | 0.0308 |
| O=C(c1cnc(NC2(c3cncnc3)CC2)nc1)N1CC2C(C1)C2C(F)(F)F (centres unmarked) [Example 64] | 0.1 |
| O=C(c1cnc(NCc2cnccn2)nc1)N1CCN2C[C@H](O)C[C@H]2C1 [Example 111] | 3.59 |
| C[C@@H]1CN(C(=O)c2cnc(NC3(c4cncnc4)CC3)nc2)C[C@H](C)O1 [Example 67] | 4.24 |
| O=C(c1cnc(NC2(c3cncnc3)CC2)nc1)N1C[C@@H]2CCCC[C@]2(CO)C1 (relative stereo) [Example 61] | 0.00251 |
| O=C(c1cnc(NCc2cccnc2)nc1)N1CCC(O)CC1 [Example 21] | 0.528 |
| Cc1cc(C2CCN(C(=O)c3cnc(NC4(c5cncnc5)CC4)nc3)C2)[nH]n1 (centres unmarked) [Example 65] | 0.00182 |
| CCC1(CO)CCN(C(=O)c2cnc(NCc3cccnc3)nc2)C1 (centres unmarked) [Example 4] | 0.00858 |
| O=C(c1cnc(NCc2cccnc2)nc1)N1CCC(O)C1 (centres unmarked) [Example 25] | 1.04 |
| CCOC1CCN(C(=O)c2cnc(NCc3cccnc3)nc2)C1 (centres unmarked) [Example 10] | 0.0759 |
| CCOCC1(F)CCN(C(=O)c2cnc(NC3(c4cncnc4)CC3)nc2)CC1 [Example 92] | 0.0509 |
| CCC1(CO)CCN(C(=O)c2cnc(NC3(c4cncnc4)CC3)nc2)C1 (single isomer, unassigned) [Example 202] | 0.0143 |
| O=C(c1cnc(NC2(c3cncnc3)CC2)nc1)N1C[C@H](O)C[C@H](C(F)(F)F)C1 [Example 89] | 0.035 |
| O=C(c1cnc(NC2(c3cncnc3)CC2)nc1)N1C[C@@H](F)C[C@@H]1CO [Example 48] | 20 |
| C[C@@H](Nc1ncc(C(=O)N2CC3(CCOCC3)C2)cn1)c1cncnc1 [Example 152] | 0.0913 |
| Cc1cnc(CNc2ncc(C(=O)N3CC4(CCOCC4)C3)cn2)cn1 [Example 165] | 0.0263 |
| CN1CC2(COCCN(C(=O)c3cnc(NC4(c5cncnc5)CC4)nc3)C2)OC1=O (centres unmarked) [Example 75] | 1.08 |
| CC(=O)NC1CCCN(C(=O)c2cnc(NCc3cccnc3)nc2)C1 (centres unmarked) [Example 23] | 0.613 |
| C[C@H]1CN(C(=O)c2cnc(NC3(c4cncnc4)CC3)nc2)C[C@]1(C)CO (relative stereo) [Example 62] | 0.00392 |
| O=C(c1cnc(NC2(c3cncnc3)CC2)nc1)N1CC2(CC(O)C2)C1 [Example 102] | 0.0408 |
| O=C(c1cnc(NCc2cnccn2)nc1)N1CC[C@@H](N2CCOCC2)C1 [Example 124] | 4.62 |

Further molecules by falling IC50, results first:

| IC50 [µM] | SMILES |
| --- | --- |
| 11.4 | CN1CC2CN(C(=O)c3cnc(NCc4cnccn4)nc3)CC2C1 (centres unmarked) [Example 123] |
| 8.8 | O=C(Nc1ncc(C(=O)N2CCC3(CCOCC3)C2)cn1)c1cncnc1 [Example 205, N-[5-(8-oxa-2-azaspiro[4.5]dec-2-ylcarbonyl)pyrimidin-2-yl]pyrimidine-5-carboxamide] |
| 2.33 | Cc1nc(NC2(c3cncnc3)CC2)ncc1C(=O)N1CCC2(CCOCC2)C1 [Example 136] |
| 2.17 | NC(=O)CC1CCN(C(=O)c2cnc(NCc3cccnc3)nc2)CC1 [Example 30] |
| 1.37 | CN1CC2(CCN(C(=O)c3cnc(NCc4cnccn4)nc3)C2)C1 [Example 119] |
| 1 | CCC1COC(=O)N1C1CCN(C(=O)c2cnc(NC3(c4cncnc4)CC3)nc2)CC1 (centres unmarked) [Example 36] |
| 0.545 | O=C(c1cnc(NC2(c3cncnc3)CC2)nc1)N1CCCC[C@H]1CCO [Example 80] |
| 0.508 | C[C@H](Nc1ncc(C(=O)N2C[C@H](O)[C@@H](N3CCOCC3)C2)cn1)c1cnccn1 [Example 113] |
| 0.158 | O=C(c1cnc(NCc2cnc(C(F)(F)F)nc2)nc1)N1CC2(CCOCC2)C1 [Example 169] |
| 0.122 | C[C@@H]1CCCN1C(=O)c1cnc(NC2(c3cncnc3)CC2)nc1 [Example 76] |
| 0.108 | O=C(c1cnc(NC2(c3cncnc3)CC2)nc1)N1C[C@H]2CC[C@@H](C1)O2 [Example 33] |
| 0.0975 | CO[C@H]1CCN(C(=O)c2cnc(NC3(c4cncnc4)CC3)nc2)C1 [Example 51] |
| 0.0472 | O=C(c1cnc(NC2(c3cncnc3)CC2)nc1)N1CCC2(CCO2)CC1 [Example 34] |
| 0.0313 | O=C(c1cnc(NC2(c3cncnc3)CC2)nc1)N1CCC[C@@]2(CCCC[C@@H]2O)C1 [Example 77] |
| 0.0273 | Cc1cnc(CNc2ncc(C(=O)N3CCC4(CCOCC4)C3)cn2)cn1 [Example 164] |
| 0.0269 | CC(C)[C@H]1C[C@@H](O)CN(C(=O)c2cnc(NC3(c4cncnc4)CC3)nc2)C1 [Example 40] |
| 0.0204 | O=C(c1cnc(NC2(c3cncnc3)CC2)nc1)N1CCC(O)C(C(F)(F)F)C1 (centres unmarked) [Example 94] |
| 0.0179 | C[C@H]1CN(C(=O)c2cnc(NCc3cccnc3)nc2)C[C@@H]1CO [Example 6] |
| 0.00733 | Cc1ncc(CNc2ncc(C(=O)N3CC4(CCOCC4)C3)cn2)cn1 [Example 171] |
| 0.00566 | O=C(c1cnc(NC2(c3cncnc3)CC2)nc1)N1CCC(F)(F)CC1 [Example 98] |
| 0.00542 | O=C(c1cnc(NC2(c3cncnc3)CC2)nc1)N1CCN2C[C@@H](F)C[C@H]2C1 [Example 35] |
| 0.00245 | CCOC1CCCN(C(=O)c2cnc(NC3(c4cncnc4)CC3)nc2)C1 (centres unmarked) [Example 104] |
| 0.00218 | O=C(c1cnc(NC2(c3ncccn3)CC2)nc1)N1CCC2(CCOCC2)C1 [Example 178] |
| 0.000745 | CC(Nc1ncc(C(=O)N2CCC3(CCOCC3)C2)cn1)c1cncnc1 (centres unmarked) [Example 183] |
| 0.000504 | O=C(c1cnc(NC2(c3cncnc3)COC2)nc1)N1CC2(CCOCC2)C1 [Example 134] |
| 0.000349 | O=C(c1cnc(NC2(c3cnccn3)COC2)nc1)N1CCC2(CCOCC2)C1 [Example 132] |
